Results from ChEMBL document CHEMBL1697781, “Assessment of the health effects of chemicals in humans: II. Construction of an adverse effects database for QSAR modeling” (Curr Drug Discov Technol, 2004).

Assays:
Settings in all cases: human; call rule not given here
Hepatotoxicity [1] = test: FDA HLAED, liver enzyme composite activity
Hepatotoxicity [2] = test: FDA HLAED, alkaline phosphatase increase
Hepatotoxicity [3] = test: FDA HLAED, serum glutamic oxaloacetic transaminase (SGOT) increase
Hepatotoxicity [4] = test: FDA HLAED, serum glutamic pyruvic transaminase (SGPT) increase
Hepatotoxicity [5] = test: FDA HLAED, lactate dehydrogenase (LDH) increase
Hepatotoxicity [6] = test: FDA HLAED, gamma-glutamyl transferase (GGT) increase
Wherever GGT Increase - Index Value is given: reference of the scale not given here.
Wherever LDH Increase - Index Value is given: reference of the scale not given here.

SMILES | Composite Activity - Active (Hepatotoxicity [1]) | Composite Activity - Marginal (Hepatotoxicity [1]) | Composite Activity - Score (Hepatotoxicity [1]) | Alkaline Phosphatase Increase - Activity Score (Hepatotoxicity [2]) | Alkaline Phosphatase Increase - Index Value (Hepatotoxicity [2]) | Alkaline Phosphatase Increase - Number of Reports (Hepatotoxicity [2]) | SGOT Increase - Activity Score (Hepatotoxicity [3]) | SGOT Increase - Index Value (Hepatotoxicity [3]) | SGOT Increase - Number of Reports (Hepatotoxicity [3]) | SGPT Increase - Activity Score (Hepatotoxicity [4]) | SGPT Increase - Index Value (Hepatotoxicity [4]) | SGPT Increase - Number of Reports (Hepatotoxicity [4]) | LDH Increase - Activity Score (Hepatotoxicity [5]) | LDH Increase - Index Value (Hepatotoxicity [5]) | LDH Increase - Number of Reports (Hepatotoxicity [5]) | GGT Increase - Activity Score (Hepatotoxicity [6]) | GGT Increase - Index Value (Hepatotoxicity [6]) | GGT Increase - Number of Reports (Hepatotoxicity [6]) | further results
CC(=O)OCC(=O)[C@@]12OC3(CCCC3)O[C@@H]1C[C@H]1[C@@H]3CCC4=CC(=O)C=C[C@]4(C)[C@@]3(F)[C@@H](O)C[C@@]12C [AMCINONIDE] | 0 | 0 | Inactive | Inactive | 0 | < 4 | Inactive | 0 | < 4 | Inactive | 0 | < 4 | Inactive | 0 | < 4 | Inactive | 0 | < 4 | 
NCCCNCCSP(=O)(O)O [AMIFOSTINE] |  |  |  | Inactive | 0 | < 4 | Inactive | 0 | < 4 | Inactive | 0 | < 4 | Inactive | 41.5 | < 4 | Inactive | 0 | < 4 | Composite Activity - Active (Hepatotoxicity [1]; Liver): 0; Composite Activity - Marginal (Hepatotoxicity [1]; Liver): 0; Composite Activity - Score (Hepatotoxicity [1]; Liver): Inactive
CCC1(c2ccc(N)cc2)CCC(=O)NC1=O (stereo unspecified) [AMINOGLUTETHIMIDE] | 0 | 0 | Inactive | Inactive | 0 | < 4 | Inactive | 0 | < 4 | Inactive | 0 | < 4 | Inactive | 0 | < 4 | Inactive | 0 | < 4 | 
CCCCc1oc2ccccc2c1C(=O)c1cc(I)c(OCCN(CC)CC)c(I)c1 [AMIODARONE] |  |  |  | Inactive | 0 | < 4 | Inactive | 0 | < 4 | Inactive | 0 | < 4 | Inactive | 0 | < 4 | Inactive | 0 | < 4 | Composite Activity - Active (Hepatotoxicity [1]; Liver): 0; Composite Activity - Marginal (Hepatotoxicity [1]; Liver): 0; Composite Activity - Score (Hepatotoxicity [1]; Liver): Inactive
CC(C)c1ccc2oc3nc(N)c(C(=O)O)cc3c(=O)c2c1 [AMLEXANOX] | 0 | 0 | Inactive | Inactive | 0 | < 4 | Inactive | 0 | < 4 | Inactive | 0 | < 4 | Inactive | 0 | < 4 | Inactive | 0 | < 4 | 
CCOC(=O)C1=C(COCCN)NC(C)=C(C(=O)OC)C1c1ccccc1Cl (stereo unspecified) [AMLODIPINE] | 0 | 0 | Inactive | Inactive | 1 | >= 4 | Inactive | 1.3 | >= 4 | Inactive | 1.2 | >= 4 | Inactive | 0.7 | >= 4 | Inactive | 0.8 | >= 4 | 
Clc1ccc2c(c1)C(N1CCNCC1)=Nc1ccccc1O2 [AMOXAPINE] | 0 | 0 | Inactive | Inactive | 0.7 | < 4 | Inactive | 1 | < 4 | Inactive | 0.7 | < 4 | Inactive | 0.7 | < 4 | Inactive | 0 | < 4 | 
CC1(C)S[C@@H]2[C@H](NC(=O)[C@H](N)c3ccc(O)cc3)C(=O)N2[C@H]1C(=O)O [AMOXICILLIN] | 0 | 0 | Inactive | Inactive | 0 | < 4 | Inactive | 0.1 | < 4 | Inactive | 0 | < 4 | Inactive | 0 | < 4 | Inactive | 0 | < 4 | 
CC(C)(C#N)c1cc(Cn2cncn2)cc(C(C)(C)C#N)c1 [ANASTROZOLE] | 2 | 0 | Active | Inactive | 6.4 | < 4 | Active | 16.1 | >= 4 | Active | 12.8 | >= 4 | Inactive | 6.4 | < 4 | Inactive | 0 | < 4 | 
Nc1cc(Cl)c(N=C2NCCN2)c(Cl)c1 [APRACLONIDINE] | 0 | 0 | Inactive | Inactive | 0 | < 4 | Inactive | 0 | < 4 | Inactive | 0 | < 4 | Inactive | 0 | < 4 | Inactive | 0 | < 4 | 
COc1ccc(CCN2CCC(Nc3nc4ccccc4n3Cc3ccc(F)cc3)CC2)cc1 [ASTEMIZOLE] | 0 | 0 | Inactive | Inactive | 1.2 | >= 4 | Inactive | 2.6 | >= 4 | Inactive | 2.8 | >= 4 | Inactive | 0.4 | < 4 | Inactive | 1.4 | >= 4 | 
CC(C)NCC(O)COc1ccc(CC(N)=O)cc1 (stereo unspecified) [ATENOLOL] |  |  |  | Inactive | 0.1 | < 4 | Inactive | 0.5 | >= 4 | Inactive | 0.3 | >= 4 | Inactive | 0.1 | < 4 | Inactive | 0 | < 4 | Composite Activity - Active (Hepatotoxicity [1]; Liver): 0; Composite Activity - Marginal (Hepatotoxicity [1]; Liver): 0; Composite Activity - Score (Hepatotoxicity [1]; Liver): Inactive
